In patent US20230123334A1, “AMINO LIPID COMPOUND, PREPARATION METHOD THEREFOR, AND APPLICATION THEREOF” (SHENZHEN SHENXIN BIOTECHNOLOGY CO., LTD., priority 2020, published 2023):

What was measured:
HEK293 cells [1] = assay: Preliminary screening as mRNA vectors, EGFP mRNA transfection of HEK293 cells; assay type: cell-based; conditions: HEK293 cells, 96-well plates, EGFP mRNA 50 ng per well; percentage of GFP fluorescent cells relative to total number of cells (Hoechst)
Method in brief: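 HEK293 cells in DMEM plus 10% FBS transfected in 96-well format with 50 ng EGFP mRNA per well; Lipofectamine2000 served as positive control. Read-out is the percentage of GFP-fluorescent cells among total cells, counted by Hoechst nuclear stain.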

HEK293 cells [2] = assay: Preliminary screening as DNA vectors, GFP transfection of HEK293 cells; assay type: cell-based; conditions: HEK293 cells; lipid/DOPE liposome with 75 ng plasmid DNA (psin-EGFP-IRES-Puro); number of cells expressing GFP divided by total number of nuclei (Hoechst)
Method in brief: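 HEK293 cells in DMEM/10% FBS transfected with 75 ng EGFP plasmid per well complexed with amino lipid/DOPE liposomes in pH 5.6 sodium acetate. Hoechst nuclear stain added 20-24 h post-transfection, then cells cultured another 20-24 h. Confocal imaging gives GFP-positive cells as % of total nuclei.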

Row | Structure (SMILES) | Absolute mRNA transfection efficiency in HEK293 cells (HEK293 cells [1]) | Absolute DNA transfection efficiency in HEK293 cells (HEK293 cells [2])
1 | CCCCCCCCNc1nc(NCCCCCCCC)nc(NCCN2CCOCC2)n1 [Compound N8N8D2] | 0.0% | 0.0%
2 | CCCCCCCCNc1nc(NCCCCCCCC)nc(NCCN2CCCC2)n1 [Compound N8N8D3] | 0.4% | 1.8%
3 | CCCCCCCCNc1nc(NCCCCCCCC)nc(NCCN2CCCCC2)n1 [Compound N8N8D4] | 0.2% | 0.0%
4 | CCCCCCCCNc1nc(NCCCCCCCC)nc(NCCN2CCN(C)CC2)n1 [Compound N8N8D5] | 0.0% | 0.0%
5 | CCCCCCCCNc1nc(NCCCCCCCC)nc(NCCCN(C)C)n1 [Compound N8N8D6] | 0.0% | 0.0%
6 | CCCCCCCCNc1nc(NCCCCCCCC)nc(NCCN(CC)CC)n1 [Compound N8N8D7] | 0.0% | 0.0%
7 | CCCCCCCCNc1nc(NCCCCCCCC)nc(NCCCN2CCOCC2)n1 [Compound N8N8D8] | 0.0% | 0.0%
8 | CCCCCCCCNc1nc(NCCCCCCCC)nc(NCCCN2CCN(C)CC2)n1 [Compound N8N8D9] | 0.0% | 0.7%
9 | CCCCCCCCNc1nc(NCCCCCCCC)nc(NCC2CCN(C)CC2)n1 [Compound N8N8D10] | 0.0% | 0.0%
10 | CCCCCCCCCNc1nc(NCCCCCCCC)nc(NCCN(C)C)n1 [Compound N8N9D1] | 0.8% | 0.0%
11 | CCCCCCCCCNc1nc(NCCCCCCCC)nc(NCCN2CCOCC2)n1 [Compound N8N9D2] | 0.3% | 0.0%
12 | CCCCCCCCCNc1nc(NCCCCCCCC)nc(NCCN2CCCC2)n1 [Compound N8N9D3] | 0.5% | 0.5%
13 | CCCCCCCCCNc1nc(NCCCCCCCC)nc(NCCN2CCCCC2)n1 [Compound N8N9D4] | 0.0% | 0.0%
14 | CCCCCCCCCNc1nc(NCCCCCCCC)nc(NCCN2CCN(C)CC2)n1 [Compound N8N9D5] | 0.0% | 0.0%
15 | CCCCCCCCCNc1nc(NCCCCCCCC)nc(NCCCN(C)C)n1 [Compound N8N9D6] | 0.0% | 0.4%
16 | CCCCCCCCCNc1nc(NCCCCCCCC)nc(NCCN(CC)CC)n1 [Compound N8N9D7] | 0.0% | 0.0%
17 | CCCCCCCCCNc1nc(NCCCCCCCC)nc(NCCCN2CCOCC2)n1 [Compound N8N9D8] | 0.0% | 0.0%
18 | CCCCCCCCCNc1nc(NCCCCCCCC)nc(NCCCN2CCN(C)CC2)n1 [Compound N8N9D9] | 0.0% | 0.0%
19 | CCCCCCCCCNc1nc(NCCCCCCCC)nc(NCC2CCN(C)CC2)n1 [Compound N8N9D10] | 0.2% | 0.5%
20 | CCCCCCCCCCCNc1nc(NCCCCCCCC)nc(NCCN(C)C)n1 [Compound N8N11D1] | 0.0% | 0.4%
21 | CCCCCCCCCCCNc1nc(NCCCCCCCC)nc(NCCN2CCOCC2)n1 [Compound N8N11D2] | 0.0% | 0.0%
22 | CCCCCCCCCCCNc1nc(NCCCCCCCC)nc(NCCN2CCCC2)n1 [Compound N8N11D3] | 4.2% | 3.6%
23 | CCCCCCCCCCCNc1nc(NCCCCCCCC)nc(NCCN2CCCCC2)n1 [Compound N8N11D4] | 0.2% | 0.2%
24 | CCCCCCCCCCCNc1nc(NCCCCCCCC)nc(NCCN2CCN(C)CC2)n1 [Compound N8N11D5] | 0.4% | 0.2%
25 | CCCCCCCCCCCNc1nc(NCCCCCCCC)nc(NCCCN(C)C)n1 [Compound N8N11D6] | 0.1% | 0.3%
